{"source": "PubChem BioAssay AID1963847", "about": "(Molecular Pharmacology Branch, DTP, NCI, 2024);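 further: spheroids exposed to compounds for one week before readout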;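 on viability, T/C: luminescence used as stand-in measure of viable cells; 100% = DMSO vehicle control viability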", "tested_on": "415267-285-R-J2-PDC complex spheroid viability", "assay": "Anticancer human tumor 415267-285-R-J2-PDC patient-derived breast carcinoma cell line growth inhibition [POLQ]", "settings": "for IC50: curve of first compound; for viability, T/C: stronger effect = lower value", "procedure,_shortened": "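Patient-derived tumour cells were co-cultured with HUVEC and mesenchymal stem cells as multicellular spheroids at 37 °C. They were treated with POLQ inhibitors (novobiocin, ART-558, RP6685) alone or combined with other agents. Top concentrations were at or near clinical Cmax (otherwise 10 microM; SN-38 at 1 microM), decreasing in half-log steps.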", "key": {"[1]": {"settings": "second compound 0.0316 µM, first compound 0.0316 µM"}, "[2]": {"settings": "second compound 0.0316 µM, first compound 0.1 µM"}, "[3]": {"settings": "second compound 0.1 µM, first compound 0.0316 µM"}, "[4]": {"settings": "second compound 0.1 µM, first compound 0.1 µM"}, "[5]": {"settings": "second compound 0.316 µM, first compound 0.0316 µM"}, "[6]": {"settings": "second compound 0.316 µM, first compound 0.1 µM"}, "[7]": {"settings": "second compound 1 µM, first compound 0.0316 µM"}, "[8]": {"settings": "second compound 1 µM, first compound 0.1 µM"}, "[9]": {"settings": "second compound 3.16 µM, first compound 0.0316 µM"}, "[10]": {"settings": "second compound 3.16 µM, first compound 0.1 µM"}, "[11]": {"settings": "second compound 10 µM, first compound 0.0316 µM"}, "[12]": {"settings": "second compound 10 µM, first compound 0.1 µM"}}, "data": [{"smiles": "CNCc1ccc(-c2[nH]c3cc(F)cc4c3c2CCNC4=O)cc1", "note": "+ Cc1cccc(N(C)C(=O)C2C(O)CCN2c2nc(C)cc(C(F)(F)F)c2C#N)c1", "values": [{"measurement": "IC50", "setting": "second compound 0.0316 µM", "result": "> 10000", "unit": "nM"}, {"measurement": "IC50", "setting": "second compound 0.1 µM", "result": "> 10000", "unit": "nM"}, {"measurement": "IC50", "setting": "second compound 0.316 µM", "result": "> 10000", "unit": "nM"}, {"measurement": "IC50", "setting": "second compound 1 µM", "result": "> 10000", "unit": "nM"}, {"measurement": "IC50", "setting": "second compound 3.16 µM", "result": "> 10000", "unit": "nM"}, {"measurement": "IC50", "setting": "second compound 10 µM", "result": "> 10000", "unit": "nM"}, {"measurement": "viability, T/C", "setting": "[1]", "result": 94.8, "unit": "%"}, {"measurement": "viability, T/C", "setting": "[2]", "result": 97.2, "unit": "%"}, {"measurement": "viability, T/C", "setting": "second compound 0.0316 µM, first compound 0.316 µM", "result": 106, "unit": "%"}, {"measurement": "viability, T/C", "setting": "second compound 0.0316 µM, first compound 1 µM", "result": 116, "unit": "%"}, {"measurement": "viability, T/C", "setting": "second compound 0.0316 µM, first compound 3.16 µM", "result": 94.5, "unit": "%"}, {"measurement": "viability, T/C", "setting": "second compound 0.0316 µM, first compound 10 µM", "result": 110, "unit": "%"}, {"measurement": "viability, T/C", "setting": "[3]", "result": 99.8, "unit": "%"}, {"measurement": "viability, T/C", "setting": "[4]", "result": 86.7, "unit": "%"}, {"measurement": "viability, T/C", "setting": "second compound 0.1 µM, first compound 0.316 µM", "result": 102, "unit": "%"}, {"measurement": "viability, T/C", "setting": "second compound 0.1 µM, first compound 1 µM", "result": 96.3, "unit": "%"}, {"measurement": "viability, T/C", "setting": "second compound 0.1 µM, first compound 3.16 µM", "result": 105, "unit": "%"}, {"measurement": "viability, T/C", "setting": "second compound 0.1 µM, first compound 10 µM", "result": 105, "unit": "%"}, {"measurement": "viability, T/C", "setting": "[5]", "result": 97.5, "unit": "%"}, {"measurement": "viability, T/C", "setting": "[6]", "result": 103, "unit": "%"}, {"measurement": "viability, T/C", "setting": "second compound 0.316 µM, first compound 0.316 µM", "result": 101, "unit": "%"}, {"measurement": "viability, T/C", "setting": "second compound 0.316 µM, first compound 1 µM", "result": 101, "unit": "%"}, {"measurement": "viability, T/C", "setting": "second compound 0.316 µM, first compound 3.16 µM", "result": 102, "unit": "%"}, {"measurement": "viability, T/C", "setting": "second compound 0.316 µM, first compound 10 µM", "result": 99.6, "unit": "%"}, {"measurement": "viability, T/C", "setting": "[7]", "result": 97.8, "unit": "%"}, {"measurement": "viability, T/C", "setting": "[8]", "result": 96.3, "unit": "%"}, {"measurement": "viability, T/C", "setting": "second compound 1 µM, first compound 0.316 µM", "result": 93.7, "unit": "%"}, {"measurement": "viability, T/C", "setting": "second compound 1 µM, first compound 1 µM", "result": 100, "unit": "%"}, {"measurement": "viability, T/C", "setting": "second compound 1 µM, first compound 3.16 µM", "result": 104, "unit": "%"}, {"measurement": "viability, T/C", "setting": "second compound 1 µM, first compound 10 µM", "result": 84.3, "unit": "%"}, {"measurement": "viability, T/C", "setting": "[9]", "result": 94, "unit": "%"}, {"measurement": "viability, T/C", "setting": "[10]", "result": 100, "unit": "%"}, {"measurement": "viability, T/C", "setting": "second compound 3.16 µM, first compound 0.316 µM", "result": 100, "unit": "%"}, {"measurement": "viability, T/C", "setting": "second compound 3.16 µM, first compound 1 µM", "result": 98, "unit": "%"}, {"measurement": "viability, T/C", "setting": "second compound 3.16 µM, first compound 3.16 µM", "result": 97.8, "unit": "%"}, {"measurement": "viability, T/C", "setting": "second compound 3.16 µM, first compound 10 µM", "result": 94.6, "unit": "%"}, {"measurement": "viability, T/C", "setting": "[11]", "result": 98.4, "unit": "%"}, {"measurement": "viability, T/C", "setting": "[12]", "result": 90.2, "unit": "%"}, {"measurement": "viability, T/C", "setting": "second compound 10 µM, first compound 0.316 µM", "result": 96.3, "unit": "%"}, {"measurement": "viability, T/C", "setting": "second compound 10 µM, first compound 1 µM", "result": 95.1, "unit": "%"}, {"measurement": "viability, T/C", "setting": "second compound 10 µM, first compound 3.16 µM", "result": 96.9, "unit": "%"}, {"measurement": "viability, T/C", "setting": "second compound 10 µM, first compound 10 µM", "result": 88.9, "unit": "%"}]}, {"smiles": "CC[C@@]1(O)C(=O)OCc2c1cc1n(c2=O)Cc2cc3c(CN(C)C)c(O)ccc3nc2-1", "note": "+ COC1C(OC(N)=O)C(O)C(Oc2ccc3c(O)c(NC(=O)c4ccc(O)c(CC=C(C)C)c4)c(=O)oc3c2C)OC1(C)C", "values": [{"measurement": "IC50", "setting": "second compound 0.0316 µM", "result": 18.5, "unit": "nM"}, {"measurement": "IC50", "setting": "second compound 0.1 µM", "result": 22.6, "unit": "nM"}, {"measurement": "IC50", "setting": "second compound 0.316 µM", "result": 22, "unit": "nM"}, {"measurement": "IC50", "setting": "second compound 1 µM", "result": 19.3, "unit": "nM"}, {"measurement": "IC50", "setting": "second compound 3.16 µM", "result": 19.4, "unit": "nM"}, {"measurement": "IC50", "setting": "second compound 10 µM", "result": 19.6, "unit": "nM"}, {"measurement": "viability, T/C", "setting": "second compound 0.0316 µM, first compound 0.000316 µM", "result": 101, "unit": "%"}, {"measurement": "viability, T/C", "setting": "second compound 0.0316 µM, first compound 0.001 µM", "result": 99, "unit": "%"}, {"measurement": "viability, T/C", "setting": "second compound 0.0316 µM, first compound 0.00316 µM", "result": 101, "unit": "%"}, {"measurement": "viability, T/C", "setting": "second compound 0.0316 µM, first compound 0.01 µM", "result": 82, "unit": "%"}, {"measurement": "viability, T/C", "setting": "[1]", "result": 22.1, "unit": "%"}, {"measurement": "viability, T/C", "setting": "[2]", "result": 9.06, "unit": "%"}, {"measurement": "viability, T/C", "setting": "second compound 0.1 µM, first compound 0.000316 µM", "result": 94, "unit": "%"}, {"measurement": "viability, T/C", "setting": "second compound 0.1 µM, first compound 0.001 µM", "result": 98.6, "unit": "%"}, {"measurement": "viability, T/C", "setting": "second compound 0.1 µM, first compound 0.00316 µM", "result": 97.4, "unit": "%"}, {"measurement": "viability, T/C", "setting": "second compound 0.1 µM, first compound 0.01 µM", "result": 83.3, "unit": "%"}, {"measurement": "viability, T/C", "setting": "[3]", "result": 36.1, "unit": "%"}, {"measurement": "viability, T/C", "setting": "[4]", "result": 8.11, "unit": "%"}, {"measurement": "viability, T/C", "setting": "second compound 0.316 µM, first compound 0.000316 µM", "result": 90, "unit": "%"}, {"measurement": "viability, T/C", "setting": "second compound 0.316 µM, first compound 0.001 µM", "result": 101, "unit": "%"}, {"measurement": "viability, T/C", "setting": "second compound 0.316 µM, first compound 0.00316 µM", "result": 103, "unit": "%"}, {"measurement": "viability, T/C", "setting": "second compound 0.316 µM, first compound 0.01 µM", "result": 107, "unit": "%"}, {"measurement": "viability, T/C", "setting": "[5]", "result": 26.7, "unit": "%"}, {"measurement": "viability, T/C", "setting": "[6]", "result": 10.8, "unit": "%"}, {"measurement": "viability, T/C", "setting": "second compound 1 µM, first compound 0.000316 µM", "result": 93.6, "unit": "%"}, {"measurement": "viability, T/C", "setting": "second compound 1 µM, first compound 0.001 µM", "result": 99.7, "unit": "%"}, {"measurement": "viability, T/C", "setting": "second compound 1 µM, first compound 0.00316 µM", "result": 88.6, "unit": "%"}, {"measurement": "viability, T/C", "setting": "second compound 1 µM, first compound 0.01 µM", "result": 84.6, "unit": "%"}, {"measurement": "viability, T/C", "setting": "[7]", "result": 24.1, "unit": "%"}, {"measurement": "viability, T/C", "setting": "[8]", "result": 8.54, "unit": "%"}, {"measurement": "viability, T/C", "setting": "second compound 3.16 µM, first compound 0.000316 µM", "result": 98.4, "unit": "%"}, {"measurement": "viability, T/C", "setting": "second compound 3.16 µM, first compound 0.001 µM", "result": 97.4, "unit": "%"}, {"measurement": "viability, T/C", "setting": "second compound 3.16 µM, first compound 0.00316 µM", "result": 105, "unit": "%"}, {"measurement": "viability, T/C", "setting": "second compound 3.16 µM, first compound 0.01 µM", "result": 94, "unit": "%"}, {"measurement": "viability, T/C", "setting": "[9]", "result": 17.8, "unit": "%"}, {"measurement": "viability, T/C", "setting": "[10]", "result": 7.35, "unit": "%"}, {"measurement": "viability, T/C", "setting": "second compound 10 µM, first compound 0.000316 µM", "result": 103, "unit": "%"}, {"measurement": "viability, T/C", "setting": "second compound 10 µM, first compound 0.001 µM", "result": 107, "unit": "%"}, {"measurement": "viability, T/C", "setting": "second compound 10 µM, first compound 0.00316 µM", "result": 107, "unit": "%"}, {"measurement": "viability, T/C", "setting": "second compound 10 µM, first compound 0.01 µM", "result": 85.8, "unit": "%"}, {"measurement": "viability, T/C", "setting": "[11]", "result": 24.6, "unit": "%"}, {"measurement": "viability, T/C", "setting": "[12]", "result": 7.99, "unit": "%"}]}]}
